Source: PMC6979384, “Characterization of the plant homeodomain (PHD) reader family for their histone tail interactions” (Epigenetics & Chromatin, 2020)
One block for each substance: values may come before it. Where no end group is shown, it is not given here. [ ]: non-standard residue; d: D form. pS = N[C@@H](COP(=O)(O)O)C(=O)O

How the values were obtained:
Experiment in all cases: Histone peptide microarray
Format in all cases: binding, human
PHF8 = conditions: for Array Heatmap value (peptide array signal): PHF8, sheet "Array Heatmap", each array performed twice, total n = 4
Description: (§1) To more comprehensively define the histone interactions of the 31 PHD readers identified from the domain microarray analyses, we probed each on an alternate microarray platform containing a library of 293 synthetic histone peptides with single or combinatorial PTMs (Additional file 2: Figure S4 and Additional file 3: Table S2).
(§2) The 31 GST-tagged PHD readers identified in the PHD finger domain array were expressed and purified as previously. Histone peptide arrays and peptide pulldown assays were conducted as recently described (specifically, the optimized protocol from Petell et al. for the former).
(§3) Supplementary file 13072_2020_328_MOESM3_ESM.xlsx: Additional file 3: Table S2. […] Excel Tab Peptide List is a compiled list of the entire 293 histone peptide library with amino acid sequence ranges. […] Each number corresponds to the peptide number designated in Peptide List. Excel Tab Average Signals is a compiled set of binding data: chromatin reader at 0.5 μM vs. entire 293 peptide library. Data is presented as the average and standard deviation of 4 replicates. The average signals are colored to indicate signal intensity with green being strong and white being weak/low. […] Key: red= stronger relative binding; blue = weaker relative binding. Excel Tab Array info summary is a table summarizing the domains, sequence coverage, array signal range, and noise for each of the GST-tagged readers assayed on the peptide microarrays.

BPTF (PB) = conditions: BPTF (PB); for Array Heatmap value (peptide array signal): sheet "Array Heatmap", each array performed twice, total n = 4
Description: as §1, §2, §3

ING5 = conditions: for Array Heatmap value (peptide array signal): ING5, sheet "Array Heatmap", each array performed twice, total n = 4
Description: as §1, §2, §3

KDM4C (TTP) = conditions: KDM4C (TTP); for Array Heatmap value (peptide array signal): sheet "Array Heatmap", each array performed twice, total n = 4
Description: as §1, §2, §3

PHRF1 (RP) = conditions: PHRF1 (RP); for Array Heatmap value (peptide array signal): sheet "Array Heatmap", each array performed twice, total n = 4
Description: as §1, §2, §3

TRIM66 (PB) = conditions: TRIM66 (PB); for Array Heatmap value (peptide array signal): sheet "Array Heatmap", each array performed twice, total n = 4
Description: as §1, §2, §3

CHD4 (PPCC) = conditions: CHD4 (PPCC); for Array Heatmap value (peptide array signal): sheet "Array Heatmap", each array performed twice, total n = 4
Description: as §1, §2, §3

DPF2 (PPC2W2) = conditions: DPF2 (PPC2W2); for Array Heatmap value (peptide array signal): sheet "Array Heatmap", each array performed twice, total n = 4
Description: as §1, §2, §3

ING4 = conditions: for Array Heatmap value (peptide array signal): ING4, sheet "Array Heatmap", each array performed twice, total n = 4
Description: as §1, §2, §3

PHF21A = conditions: PHF21A; for Array Heatmap value (peptide array signal): sheet "Array Heatmap", each array performed twice, total n = 4
Description: as §1, §2, §3

KDM5A (3) = conditions: KDM5A (3); for Array Heatmap value (peptide array signal): sheet "Array Heatmap", each array performed twice, total n = 4
Description: as §1, §2, §3

PHF13 = conditions: for Array Heatmap value (peptide array signal): PHF13, sheet "Array Heatmap", each array performed twice, total n = 4
Description: as §1, §2, §3

SP140L = conditions: SP140L; for Array Heatmap value (peptide array signal): sheet "Array Heatmap", each array performed twice, total n = 4
Description: as §1, §2, §3

ING1 = conditions: for Array Heatmap value (peptide array signal): ING1, sheet "Array Heatmap", each array performed twice, total n = 4
Description: as §1, §2, §3

MLL5 = conditions: for Array Heatmap value (peptide array signal): MLL5, sheet "Array Heatmap", each array performed twice, total n = 4
Description: as §1, §2, §3

KDM5B (3) = conditions: KDM5B (3); for Array Heatmap value (peptide array signal): sheet "Array Heatmap", each array performed twice, total n = 4
Description: as §1, §2, §3

RAG2 = conditions: for Array Heatmap value (peptide array signal): RAG2, sheet "Array Heatmap", each array performed twice, total n = 4
Description: as §1, §2, §3

CHD5 (PCC) = conditions: CHD5 (PCC); for Array Heatmap value (peptide array signal): sheet "Array Heatmap", each array performed twice, total n = 4
Description: as §1, §2, §3

KDM5A (1) = conditions: KDM5A (1); for Array Heatmap value (peptide array signal): sheet "Array Heatmap", each array performed twice, total n = 4
Description: as §1, §2, §3

PHF23 = conditions: for Array Heatmap value (peptide array signal): PHF23, sheet "Array Heatmap", each array performed twice, total n = 4
Description: as §1, §2, §3

KDM5B (1) = conditions: KDM5B (1); for Array Heatmap value (peptide array signal): sheet "Array Heatmap", each array performed twice, total n = 4
Description: as §1, §2, §3

PHF2 = conditions: for Array Heatmap value (peptide array signal): PHF2, sheet "Array Heatmap", each array performed twice, total n = 4
Description: as §1, §2, §3

MORC3 (CW) = conditions: MORC3 (CW); for Array Heatmap value (peptide array signal): sheet "Array Heatmap", each array performed twice, total n = 4
Description: as §1, §2, §3

CHD5 (PPCC) = conditions: CHD5 (PPCC); for Array Heatmap value (peptide array signal): sheet "Array Heatmap", each array performed twice, total n = 4
Description: as §1, §2, §3

BAZ2B = conditions: BAZ2B; for Array Heatmap value (peptide array signal): sheet "Array Heatmap", each array performed twice, total n = 4
Description: as §1, §2, §3

DIDO1 = conditions: for Array Heatmap value (peptide array signal): DIDO1, sheet "Array Heatmap", each array performed twice, total n = 4
Description: as §1, §2, §3

TAF3 = conditions: for Array Heatmap value (peptide array signal): TAF3, sheet "Array Heatmap", each array performed twice, total n = 4
Description: as §1, §2, §3

ING2 = conditions: for Array Heatmap value (peptide array signal): ING2, sheet "Array Heatmap", each array performed twice, total n = 4
Description: as §1, §2, §3

KDM7A = conditions: KDM7A; for Array Heatmap value (peptide array signal): sheet "Array Heatmap", each array performed twice, total n = 4
Description: as §1, §2, §3

AIRE (PP) = conditions: AIRE (PP); for Array Heatmap value (peptide array signal): sheet "Array Heatmap", each array performed twice, total n = 4
Description: as §1, §2, §3

ING3 = conditions: for Array Heatmap value (peptide array signal): ING3, sheet "Array Heatmap", each array performed twice, total n = 4
Description: as §1, §2, §3

[1] = GST-tagged, arrays performed twice, n of 4

Array Heatmap value (peptide array binding signal) (PHF8; PHF8, GST-tagged, arrays performed twice, n of 4): 0.3729
Array Heatmap value (peptide array binding signal) (BPTF (PB); [1]): 0.3554
Array Heatmap value (peptide array binding signal) (ING5; ING5, GST-tagged, arrays performed twice, n of 4): 0.3847
Array Heatmap value (peptide array binding signal) (KDM4C (TTP); [1]): 0.5256
Array Heatmap value (peptide array binding signal) (PHRF1 (RP); [1]): 0.411
Array Heatmap value (peptide array binding signal) (TRIM66 (PB); [1]): 0.5363
Array Heatmap value (peptide array binding signal) (CHD4 (PPCC); [1]): 0.5526
Array Heatmap value (peptide array binding signal) (DPF2 (PPC2W2); [1]): 0.653
Array Heatmap value (peptide array binding signal) (ING4; ING4, GST-tagged, arrays performed twice, n of 4): 0.4783
Array Heatmap value (peptide array binding signal) (PHF21A; [1]): 0.4613
Array Heatmap value (peptide array binding signal) (KDM5A (3); [1]): 0.4478
Array Heatmap value (peptide array binding signal) (PHF13; PHF13, GST-tagged, arrays performed twice, n of 4): 0.6185
Array Heatmap value (peptide array binding signal) (SP140L; [1]): 0.363
Array Heatmap value (peptide array binding signal) (ING1; ING1, GST-tagged, arrays performed twice, n of 4): 0.495
Array Heatmap value (peptide array binding signal) (MLL5; MLL5, GST-tagged, arrays performed twice, n of 4): 0.5137
Array Heatmap value (peptide array binding signal) (KDM5B (3); [1]): 0.5358
Array Heatmap value (peptide array binding signal) (RAG2; RAG2, GST-tagged, arrays performed twice, n of 4): 0.2586
Array Heatmap value (peptide array binding signal) (CHD5 (PCC); [1]): 0.7872
Array Heatmap value (peptide array binding signal) (KDM5A (1); [1]): 0.5265
Array Heatmap value (peptide array binding signal) (PHF23; PHF23, GST-tagged, arrays performed twice, n of 4): 0.5395
Array Heatmap value (peptide array binding signal) (KDM5B (1); [1]): 0.697
Array Heatmap value (peptide array binding signal) (PHF2; PHF2, GST-tagged, arrays performed twice, n of 4): 0.4467
Array Heatmap value (peptide array binding signal) (MORC3 (CW); [1]): 0.3885
Array Heatmap value (peptide array binding signal) (CHD5 (PPCC); [1]): 0.5731
Array Heatmap value (peptide array binding signal) (BAZ2B; [1]): 0.5073
Array Heatmap value (peptide array binding signal) (DIDO1; DIDO1, GST-tagged, arrays performed twice, n of 4): 0.6489
Array Heatmap value (peptide array binding signal) (TAF3; TAF3, GST-tagged, arrays performed twice, n of 4): 0.2793
Array Heatmap value (peptide array binding signal) (ING2; ING2, GST-tagged, arrays performed twice, n of 4): 0.5973
Array Heatmap value (peptide array binding signal) (KDM7A; [1]): 0.4369
Array Heatmap value (peptide array binding signal) (AIRE (PP); [1]): 0.5219
Array Heatmap value (peptide array binding signal) (ING3; ING3, GST-tagged, arrays performed twice, n of 4): 0.4704
Substance: H2AX (S139p): H2AX 132-142 (GKKATQA[pS]QEY; UniProt P16104 133-143, looked up, fragment)

Substance: H2BK5me1: H2B 1-24 [Peptide H2BK5me1]
Array Heatmap value (peptide array signal) (PHF8): 0.341
Array Heatmap value (peptide array signal) (BPTF (PB)): 0.3333
Array Heatmap value (peptide array signal) (ING5): 0.3396
Array Heatmap value (peptide array signal) (KDM4C (TTP)): 0.4441
Array Heatmap value (peptide array signal) (PHRF1 (RP)): 0.4244
Array Heatmap value (peptide array signal) (TRIM66 (PB)): 0.6209
Array Heatmap value (peptide array signal) (CHD4 (PPCC)): 0.5519
Array Heatmap value (peptide array signal) (DPF2 (PPC2W2)): 0.6733
Array Heatmap value (peptide array signal) (ING4): 0.4312
Array Heatmap value (peptide array signal) (PHF21A): 0.4511
Array Heatmap value (peptide array signal) (KDM5A (3)): 0.4387
Array Heatmap value (peptide array signal) (PHF13): 0.5791
Array Heatmap value (peptide array signal) (SP140L): 0.3691
Array Heatmap value (peptide array signal) (ING1): 0.5552
Array Heatmap value (peptide array signal) (MLL5): 0.5838
Array Heatmap value (peptide array signal) (KDM5B (3)): 0.4454
Array Heatmap value (peptide array signal) (RAG2): 0.242
Array Heatmap value (peptide array signal) (CHD5 (PCC)): 0.7328
Array Heatmap value (peptide array signal) (KDM5A (1)): 0.4431
Array Heatmap value (peptide array signal) (PHF23): 0.5121
Array Heatmap value (peptide array signal) (KDM5B (1)): 0.6308
Array Heatmap value (peptide array signal) (PHF2): 0.5195
Array Heatmap value (peptide array signal) (MORC3 (CW)): 0.347
Array Heatmap value (peptide array signal) (CHD5 (PPCC)): 0.5218
Array Heatmap value (peptide array signal) (BAZ2B): 0.4388
Array Heatmap value (peptide array signal) (DIDO1): 0.7058
Array Heatmap value (peptide array signal) (TAF3): 0.2612
Array Heatmap value (peptide array signal) (ING2): 0.6238
Array Heatmap value (peptide array signal) (KDM7A): 0.316
Array Heatmap value (peptide array signal) (AIRE (PP)): 0.3816
Array Heatmap value (peptide array signal) (ING3): 0.4514

Substance: H2BK5me3: H2B 1-24 [Peptide H2BK5me3]
Array Heatmap value (peptide array signal) (PHF8): 0.3604
Array Heatmap value (peptide array signal) (BPTF (PB)): 0.341
Array Heatmap value (peptide array signal) (ING5): 0.3443
Array Heatmap value (peptide array signal) (KDM4C (TTP)): 0.446
Array Heatmap value (peptide array signal) (PHRF1 (RP)): 0.4726
Array Heatmap value (peptide array signal) (TRIM66 (PB)): 0.6056
Array Heatmap value (peptide array signal) (CHD4 (PPCC)): 0.5374
Array Heatmap value (peptide array signal) (DPF2 (PPC2W2)): 0.6454
Array Heatmap value (peptide array signal) (ING4): 0.4354
Array Heatmap value (peptide array signal) (PHF21A): 0.4302
Array Heatmap value (peptide array signal) (KDM5A (3)): 0.4811
Array Heatmap value (peptide array signal) (PHF13): 0.5645
Array Heatmap value (peptide array signal) (SP140L): 0.332
Array Heatmap value (peptide array signal) (ING1): 0.5322
Array Heatmap value (peptide array signal) (MLL5): 0.5755
Array Heatmap value (peptide array signal) (KDM5B (3)): 0.4604
Array Heatmap value (peptide array signal) (RAG2): 0.2767
Array Heatmap value (peptide array signal) (CHD5 (PCC)): 0.766
Array Heatmap value (peptide array signal) (KDM5A (1)): 0.4446
Array Heatmap value (peptide array signal) (PHF23): 0.5495
Array Heatmap value (peptide array signal) (KDM5B (1)): 0.6322
Array Heatmap value (peptide array signal) (PHF2): 0.5404
Array Heatmap value (peptide array signal) (MORC3 (CW)): 0.3836
Array Heatmap value (peptide array signal) (CHD5 (PPCC)): 0.5383
Array Heatmap value (peptide array signal) (BAZ2B): 0.449
Array Heatmap value (peptide array signal) (DIDO1): 0.7661
Array Heatmap value (peptide array signal) (TAF3): 0.2673
Array Heatmap value (peptide array signal) (ING2): 0.6172
Array Heatmap value (peptide array signal) (KDM7A): 0.3153
Array Heatmap value (peptide array signal) (AIRE (PP)): 0.3902
Array Heatmap value (peptide array signal) (ING3): 0.4743
